According to ChEMBL document CHEMBL4507263, “Data for DCP probe BAY-474” (2021):

Tests used:
[1] = biological target: Tyrosine-protein kinase ZAP-70 (Homo sapiens) (UniProt P43403); assay: ZAP-70 (h) Millipore kinase activity assay; conditions: Compound concentration 1.0 uM
[2] = biological target: Calcium/calmodulin-dependent protein kinase type II subunit delta (Homo sapiens) (UniProt Q13557); assay: CaMKIIdelta (h) Millipore kinase activity assay; conditions: Compound concentration 1.0 uM
[3] = biological target: Ribosomal protein S6 kinase alpha-3 (Homo sapiens, UniProt P51812); assay: Rsk2 (h) Millipore kinase activity assay
Chain of Ribosomal protein S6 kinase alpha-3 (P51812 whole entry): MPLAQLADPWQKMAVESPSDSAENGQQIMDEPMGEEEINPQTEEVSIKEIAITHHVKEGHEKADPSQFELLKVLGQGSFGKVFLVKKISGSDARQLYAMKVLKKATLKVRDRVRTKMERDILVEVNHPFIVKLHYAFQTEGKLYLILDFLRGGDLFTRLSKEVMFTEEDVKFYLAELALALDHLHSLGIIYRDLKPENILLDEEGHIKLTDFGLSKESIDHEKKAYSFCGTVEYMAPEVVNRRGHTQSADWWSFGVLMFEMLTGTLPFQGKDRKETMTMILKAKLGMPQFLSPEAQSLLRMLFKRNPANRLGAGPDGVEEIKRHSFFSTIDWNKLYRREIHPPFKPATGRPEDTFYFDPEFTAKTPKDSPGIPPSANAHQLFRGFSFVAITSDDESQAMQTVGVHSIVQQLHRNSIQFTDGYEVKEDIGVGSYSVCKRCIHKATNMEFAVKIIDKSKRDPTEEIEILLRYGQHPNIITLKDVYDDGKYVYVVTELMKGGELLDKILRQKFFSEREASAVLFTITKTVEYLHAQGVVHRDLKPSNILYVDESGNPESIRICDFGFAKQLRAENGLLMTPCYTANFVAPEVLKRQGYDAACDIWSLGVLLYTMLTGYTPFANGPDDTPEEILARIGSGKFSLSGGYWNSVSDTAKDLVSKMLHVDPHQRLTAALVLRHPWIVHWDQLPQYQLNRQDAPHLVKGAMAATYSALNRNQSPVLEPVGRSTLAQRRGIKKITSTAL

[4] = biological target: Ribosomal protein S6 kinase alpha-1 (Homo sapiens) (UniProt Q15418); assay: Rsk1 (h) Millipore kinase activity assay; conditions: Compound concentration 1.0 uM
Chain of Ribosomal protein S6 kinase alpha-1 (Homo sapiens) (Q15418 whole entry): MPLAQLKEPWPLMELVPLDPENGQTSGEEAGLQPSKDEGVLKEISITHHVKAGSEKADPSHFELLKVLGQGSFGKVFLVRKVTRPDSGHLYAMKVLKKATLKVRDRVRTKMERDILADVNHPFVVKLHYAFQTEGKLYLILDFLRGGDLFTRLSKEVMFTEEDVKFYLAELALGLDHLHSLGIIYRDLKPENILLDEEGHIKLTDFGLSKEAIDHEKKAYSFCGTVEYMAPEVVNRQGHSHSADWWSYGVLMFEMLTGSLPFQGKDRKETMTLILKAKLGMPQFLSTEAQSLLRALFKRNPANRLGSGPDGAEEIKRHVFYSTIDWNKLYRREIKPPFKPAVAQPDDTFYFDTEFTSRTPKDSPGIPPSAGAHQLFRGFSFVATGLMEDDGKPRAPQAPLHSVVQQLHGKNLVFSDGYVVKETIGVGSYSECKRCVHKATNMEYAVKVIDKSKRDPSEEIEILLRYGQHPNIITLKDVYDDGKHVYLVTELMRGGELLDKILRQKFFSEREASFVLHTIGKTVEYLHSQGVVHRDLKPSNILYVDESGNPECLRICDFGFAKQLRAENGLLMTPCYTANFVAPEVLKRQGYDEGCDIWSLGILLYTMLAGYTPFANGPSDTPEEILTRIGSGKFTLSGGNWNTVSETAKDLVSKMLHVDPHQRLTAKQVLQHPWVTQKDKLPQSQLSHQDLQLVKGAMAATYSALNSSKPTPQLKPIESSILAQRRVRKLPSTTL

[5] = biological target: T1, GABA-A receptor; anion channel (Rattus norvegicus) (UniProt O09028+P15431+P18506+P18508+P19969+P20236+P23574+P23576+P28471+P28473+P30191+P62813+P63079+P63138+Q91ZM7+Q9ES14); assay: Inhibition of GABAA, Muscimol, Central at 10 µM in the Eurofins-Panlabs radioligand binding assay (Eurofins_assay_226500); format: protein-complex assay; conditions: Compound concentration 10.0 uM
[6] = biological target: Calcium/calmodulin-dependent protein kinase type IV (Homo sapiens) (UniProt Q16566); assay: CaMKIV (h) Millipore kinase activity assay; conditions: Compound concentration 1.0 uM
Mus musculus = species on record: Mus musculus; assay: Inhibition of Phorbol Ester at 10 µM in the Eurofins-Panlabs radioligand binding assay (Eurofins_assay_264500); set-up: ligand concentration 3 nM; conditions: Compound concentration 10.0 uM
[7] = biological target: Mitogen-activated protein kinase kinase kinase kinase 2 (Homo sapiens) (UniProt Q12851); assay: GCK (h) Millipore kinase activity assay; conditions: Compound concentration 1.0 uM
[8] = biological target: RAC-beta serine/threonine-protein kinase (Homo sapiens) (UniProt P31751); assay: PKBbeta (h) Millipore kinase activity assay; conditions: Compound concentration 1.0 uM
Chain of RAC-beta serine/threonine-protein kinase (Homo sapiens) (P31751 whole entry): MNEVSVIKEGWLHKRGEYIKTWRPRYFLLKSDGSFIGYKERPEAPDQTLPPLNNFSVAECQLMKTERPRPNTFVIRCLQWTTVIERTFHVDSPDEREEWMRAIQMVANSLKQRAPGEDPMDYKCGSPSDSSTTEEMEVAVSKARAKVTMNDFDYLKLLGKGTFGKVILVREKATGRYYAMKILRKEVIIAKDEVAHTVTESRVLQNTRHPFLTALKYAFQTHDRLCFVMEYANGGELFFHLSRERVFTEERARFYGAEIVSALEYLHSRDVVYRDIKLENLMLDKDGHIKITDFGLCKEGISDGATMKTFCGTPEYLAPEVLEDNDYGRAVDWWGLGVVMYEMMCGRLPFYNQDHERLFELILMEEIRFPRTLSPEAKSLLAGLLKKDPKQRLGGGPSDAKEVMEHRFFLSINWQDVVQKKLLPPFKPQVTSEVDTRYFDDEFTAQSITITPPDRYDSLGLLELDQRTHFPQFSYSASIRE

[9] = biological target: Ephrin type-B receptor 3 (Homo sapiens) (UniProt P54753); assay: EphB3 (h) Millipore kinase activity assay; conditions: Compound concentration 1.0 uM
[10] = biological target: T1, GABA-A receptor; anion channel (Rattus norvegicus); conditions: Compound concentration 10.0 uM
[11] = biological target: T2, Muscarinic acetylcholine receptor M1 (Homo sapiens) (UniProt P11229); conditions: Compound concentration 10.0 uM
T2 sequence (whole entry): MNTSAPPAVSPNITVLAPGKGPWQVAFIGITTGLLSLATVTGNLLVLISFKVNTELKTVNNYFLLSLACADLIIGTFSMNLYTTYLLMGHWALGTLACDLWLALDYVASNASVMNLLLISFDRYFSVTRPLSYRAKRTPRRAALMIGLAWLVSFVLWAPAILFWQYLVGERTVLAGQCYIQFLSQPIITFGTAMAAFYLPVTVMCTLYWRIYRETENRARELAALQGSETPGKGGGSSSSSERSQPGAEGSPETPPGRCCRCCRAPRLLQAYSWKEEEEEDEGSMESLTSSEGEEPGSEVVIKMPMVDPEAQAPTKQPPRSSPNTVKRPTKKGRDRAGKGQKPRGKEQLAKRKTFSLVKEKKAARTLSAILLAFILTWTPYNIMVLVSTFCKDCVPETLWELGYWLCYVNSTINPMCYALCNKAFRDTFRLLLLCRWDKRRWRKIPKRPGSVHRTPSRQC

[12] = biological target: Epidermal growth factor receptor (Homo sapiens) (UniProt P00533); assay: Inhibition of Epidermal Growth Factor (EGF) at 10 µM in the Eurofins-Panlabs radioligand binding assay (Eurofins_assay_225510); conditions: Compound concentration 10.0 uM
[13] = biological target: Serine/threonine-protein kinase Chk2 (Homo sapiens) (UniProt O96017); conditions: Compound concentration 1000.0 nM
[14] = biological target: Death-associated protein kinase 2 (Homo sapiens) (UniProt Q9UIK4); conditions: Compound concentration 1000.0 nM
[15] = biological target: Myosin light chain kinase family member 4 (Homo sapiens) (UniProt Q86YV6); conditions: Compound concentration 1000.0 nM
Chain of Myosin light chain kinase family member 4 (Homo sapiens) (Q86YV6 whole entry): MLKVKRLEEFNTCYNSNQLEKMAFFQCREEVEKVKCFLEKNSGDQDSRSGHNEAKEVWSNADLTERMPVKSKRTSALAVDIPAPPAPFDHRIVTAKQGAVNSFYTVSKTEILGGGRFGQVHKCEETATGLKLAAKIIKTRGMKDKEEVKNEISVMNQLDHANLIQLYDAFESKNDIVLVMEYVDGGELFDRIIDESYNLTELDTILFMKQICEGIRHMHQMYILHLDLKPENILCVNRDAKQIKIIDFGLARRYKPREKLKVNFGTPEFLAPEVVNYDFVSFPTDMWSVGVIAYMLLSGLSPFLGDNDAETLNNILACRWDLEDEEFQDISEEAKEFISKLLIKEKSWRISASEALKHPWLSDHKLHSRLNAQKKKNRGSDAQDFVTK

[16] = biological target: Cyclin-dependent kinase 11A (Homo sapiens) (UniProt Q9UQ88); conditions: Compound concentration 1000.0 nM
[17] = biological target: Serine/threonine-protein kinase WNK1 (Homo sapiens) (UniProt Q9H4A3); conditions: Compound concentration 1000.0 nM
[18] = biological target: Serine/threonine-protein kinase/endoribonuclease IRE1 (Homo sapiens) (UniProt O75460); conditions: Compound concentration 1000.0 nM
[19] = biological target: Non-receptor tyrosine-protein kinase TNK1 (Homo sapiens) (UniProt Q13470); conditions: Compound concentration 1000.0 nM
Chain of Non-receptor tyrosine-protein kinase TNK1 (Homo sapiens) (Q13470 whole entry): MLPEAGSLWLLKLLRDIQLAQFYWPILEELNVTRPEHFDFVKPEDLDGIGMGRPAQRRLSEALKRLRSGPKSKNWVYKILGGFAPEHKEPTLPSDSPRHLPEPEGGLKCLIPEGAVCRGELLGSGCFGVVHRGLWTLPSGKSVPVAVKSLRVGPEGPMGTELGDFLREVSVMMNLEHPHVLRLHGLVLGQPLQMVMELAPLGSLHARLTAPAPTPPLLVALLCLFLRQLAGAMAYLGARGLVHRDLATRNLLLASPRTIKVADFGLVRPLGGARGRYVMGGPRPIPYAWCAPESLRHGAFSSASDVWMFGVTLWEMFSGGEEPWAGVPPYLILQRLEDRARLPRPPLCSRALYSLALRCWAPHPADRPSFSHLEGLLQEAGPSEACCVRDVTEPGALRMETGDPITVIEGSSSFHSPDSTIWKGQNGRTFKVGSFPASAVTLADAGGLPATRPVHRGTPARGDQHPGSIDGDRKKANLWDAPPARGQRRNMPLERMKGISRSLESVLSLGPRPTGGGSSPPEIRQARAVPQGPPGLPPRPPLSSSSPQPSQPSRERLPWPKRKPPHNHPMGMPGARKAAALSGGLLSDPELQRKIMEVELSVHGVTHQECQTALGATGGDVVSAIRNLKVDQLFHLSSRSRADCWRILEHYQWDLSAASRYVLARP

[20] = biological target: Mitogen-activated protein kinase kinase kinase kinase 5 (Homo sapiens) (UniProt Q9Y4K4); conditions: Compound concentration 1000.0 nM
[21] = system: Tyrosine-protein kinase ABL1 (Homo sapiens), P00519 [F317L]; conditions: Compound concentration 1000.0 nM
Chain of Tyrosine-protein kinase ABL1 (Homo sapiens), P00519 [F317L] (P00519 whole entry F317L): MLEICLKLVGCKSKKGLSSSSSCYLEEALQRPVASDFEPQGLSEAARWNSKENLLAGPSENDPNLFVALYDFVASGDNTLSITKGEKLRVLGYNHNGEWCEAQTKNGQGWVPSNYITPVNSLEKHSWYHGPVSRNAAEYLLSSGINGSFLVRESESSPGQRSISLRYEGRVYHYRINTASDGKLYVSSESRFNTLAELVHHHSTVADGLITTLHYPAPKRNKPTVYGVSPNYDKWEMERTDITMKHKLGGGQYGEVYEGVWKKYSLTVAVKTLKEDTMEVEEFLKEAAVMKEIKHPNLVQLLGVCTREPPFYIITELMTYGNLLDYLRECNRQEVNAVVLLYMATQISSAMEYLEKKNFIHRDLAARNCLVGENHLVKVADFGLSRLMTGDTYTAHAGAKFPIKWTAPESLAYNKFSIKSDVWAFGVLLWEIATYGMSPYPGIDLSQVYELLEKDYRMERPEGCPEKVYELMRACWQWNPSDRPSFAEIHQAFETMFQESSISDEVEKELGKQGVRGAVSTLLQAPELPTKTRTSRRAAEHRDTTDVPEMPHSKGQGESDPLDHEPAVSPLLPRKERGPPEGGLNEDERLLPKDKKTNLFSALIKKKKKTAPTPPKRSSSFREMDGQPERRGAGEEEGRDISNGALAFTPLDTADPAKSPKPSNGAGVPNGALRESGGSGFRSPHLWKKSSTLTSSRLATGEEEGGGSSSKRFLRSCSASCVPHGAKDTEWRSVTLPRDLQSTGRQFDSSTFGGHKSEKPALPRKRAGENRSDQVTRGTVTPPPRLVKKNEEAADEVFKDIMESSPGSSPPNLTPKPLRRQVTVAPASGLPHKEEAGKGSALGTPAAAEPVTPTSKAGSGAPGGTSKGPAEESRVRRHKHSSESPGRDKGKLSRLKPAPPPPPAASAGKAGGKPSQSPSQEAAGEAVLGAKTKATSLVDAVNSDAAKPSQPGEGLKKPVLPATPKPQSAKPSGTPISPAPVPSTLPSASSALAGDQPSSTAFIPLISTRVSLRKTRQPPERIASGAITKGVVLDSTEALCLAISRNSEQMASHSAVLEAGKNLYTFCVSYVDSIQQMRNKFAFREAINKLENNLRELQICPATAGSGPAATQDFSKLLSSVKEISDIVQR

[22] = biological target: Cyclin-dependent kinase 13 (Homo sapiens) (UniProt Q14004); conditions: Compound concentration 1000.0 nM
[23] = biological target: Ribosomal protein S6 kinase alpha-2 (Homo sapiens) (UniProt Q15349); conditions: Compound concentration 1000.0 nM
[24] = biological target: Serine/threonine-protein kinase pim-3 (Homo sapiens) (UniProt Q86V86); conditions: Compound concentration 1000.0 nM
[25] = biological target: Atypical kinase COQ8B, mitochondrial (Homo sapiens) (UniProt Q96D53); conditions: Compound concentration 1000.0 nM
[26] = biological target: Aurora kinase B (Homo sapiens) (UniProt Q96GD4); conditions: Compound concentration 1000.0 nM
[27] = biological target: Leukocyte tyrosine kinase receptor (Homo sapiens) (UniProt P29376); conditions: Compound concentration 1000.0 nM
[28] = biological target: Platelet-derived growth factor receptor alpha (Homo sapiens) (UniProt P16234); conditions: Compound concentration 1000.0 nM
[29] = biological target: 5-hydroxytryptamine receptor 2B (Homo sapiens) (UniProt P41595); conditions: Compound concentration 10.0 uM
[30] = biological target: Ribosomal protein S6 kinase alpha-6 (Homo sapiens) (UniProt Q9UK32); conditions: Compound concentration 1000.0 nM
[31] = biological target: Dual specificity mitogen-activated protein kinase kinase 4 (Homo sapiens) (UniProt P45985); conditions: Compound concentration 1000.0 nM
[32] = biological target: Mitogen-activated protein kinase kinase kinase 2 (Homo sapiens) (UniProt Q9Y2U5); conditions: Compound concentration 1000.0 nM
[33] = biological target: Serine/threonine-protein kinase ULK3 (Homo sapiens) (UniProt Q6PHR2); conditions: Compound concentration 1000.0 nM
Chain of Serine/threonine-protein kinase ULK3 (Homo sapiens) (Q6PHR2 whole entry): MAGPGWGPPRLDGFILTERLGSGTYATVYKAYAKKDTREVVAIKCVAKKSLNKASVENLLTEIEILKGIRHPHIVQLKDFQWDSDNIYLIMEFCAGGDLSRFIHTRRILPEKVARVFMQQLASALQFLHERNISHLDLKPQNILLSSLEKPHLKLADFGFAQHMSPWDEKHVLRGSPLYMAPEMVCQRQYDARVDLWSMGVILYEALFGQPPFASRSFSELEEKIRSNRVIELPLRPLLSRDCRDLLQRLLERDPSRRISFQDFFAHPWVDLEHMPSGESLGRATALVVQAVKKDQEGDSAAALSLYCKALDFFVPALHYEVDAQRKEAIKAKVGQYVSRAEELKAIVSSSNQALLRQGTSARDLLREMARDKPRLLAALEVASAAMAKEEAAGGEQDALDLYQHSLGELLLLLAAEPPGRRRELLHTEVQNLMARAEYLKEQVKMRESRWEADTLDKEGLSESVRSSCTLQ

[34] = biological target: Serine/threonine-protein kinase 16 (Homo sapiens) (UniProt O75716); conditions: Compound concentration 1000.0 nM

Compound `CC1=C(C#N)C(c2ccc3[nH]nc(C)c3c2)C(C#N)=C(C)N1` [BAY-474] has an inhibition [1] of 12%, an inhibition [2] of 3% and an IC50 [3] of 0.9 µM. It also gave an inhibition ([3]; Compound concentration 1.0 uM) of 46%, an inhibition [4] of 46% and an inhibition [5] of 10%. It also gave an inhibition [6] of -1%, an inhibition (Mus musculus) of 4% and an inhibition [7] of 1%. For the same compound, the inhibition [8] was -5%, the inhibition [9] was -5% and the inhibition [10] was -2%. It also gave an inhibition [11] of 0% and an inhibition [12] of 7%.

Work on `CC1=C(C#N)[C@@H](c2ccc3[nH]nc(C)c3c2)C(C#N)=C(c2ccc(Cl)cc2)N1` [BAY-827] yielded a residual activity [13] of 100%, a residual activity [14] of 100% and a residual activity [15] of 100%. The residual activity [16] was 90%, the residual activity [17] was 100% and the residual activity [18] was 100%. It also gave a residual activity [19] of 65%, a residual activity [20] of 54% and a residual activity [21] of 100%. The residual activity [22] was 86.6%, the residual activity [23] was 100% and the residual activity [24] was 100%. It also gave a residual activity [25] of 78.8%, a residual activity [26] of 82.9% and a residual activity [27] of 100%. It also gave a residual activity [28] of 100%, an inhibition [29] of -7.44% and a residual activity [30] of 100%. It also gave a residual activity [31] of 71.5%, a residual activity [32] of 72.2% and a residual activity [33] of 88.3%. The residual activity [34] was 100%.
